From patent publication US20260198495A1, “BINARY INSECTICIDE COMPOSITION AND USE THEREOF” (SHENYANG SINOCHEM AGROCHEMICALS R & D CO., LTD., priority 2022, published 2026)
≈ marks a conversion by molar mass, not a printed value.

Assays:
Type in all cases: in vivo
[1] = tested on: adult Tetranychus urticae Koch; test: Joint toxicity of I-72 + cyetpyrafen, Example 85, Table 85; details: Tetranychus urticae; A = compound I72, B = cyetpyrafen; potted-seedling spraying; 72 hours; read-out: LC50
Procedure: Test target: adult Tetranychus urticae Koch, a sensitive strain reared indoors.
(§1) Preparation of the pesticide solution: according to different test requirements, the test samples were accurately weighed respectively with an electronic analytical balance. The technical pesticides were dissolved in acetone, and then diluted with 0.1% Tween 80 water into a series of pesticide solutions with a certain concentration gradient according to the experimental design dosage.
Experimental method: the activity of the mixture against the adult Tetranychus urticae Koch was determined by adopting the potted-seedling spraying method. First, the adult Tetranychus urticae Koch of uniform size were transferred onto the leaves of kidney bean seedlings at the stage when the first pair of true leaves was fully expanded. After the adult mites had stabilized, the base number was counted. Then, the uniform spraying was performed with the pesticide solution in the order from low to high dose according to the experimental design, with 1.5 mL for each seedling and 3 replicates for each treatment. […]
(§2) The treated test materials were placed in an observation room, and the temperature, humidity and illumination of the observation room could be adjusted as needed. […] Then, the co-toxicity coefficient of each ratio was calculated using the Sun Y-P method to evaluate the mixing effect (the same as in Example 1).

[2] = tested on: Nilaparvata lugens (Stal) nymphs; test: Joint toxicity of I-72 + triflumezopyrim, Example 75, Table 75; details: Nilaparvata lugens; A = compound I-72, B = triflumezopyrim; potted-seedling spraying; 72 hours; read-out: LC50
Procedure: (§3) Test target: Nilaparvata lugens (Stal) nymphs, a sensitive strain reared indoors.
as §1
(§4) Experimental method: the activity of the mixture against the Nilaparvata lugens (Stal) nymphs was determined by adopting the potted-seedling spraying method. First, rice seedlings were planted in culture pots. Uniform spraying was performed with the pesticide solution in the order from low dosage to high dosage according to the experimental design, with 2 mL for each seedling. Then, Nilaparvata lugens nymphs of uniform size were transferred onto the rice seedlings, with 3 replicates for each treatment. In addition, a blank control was set up.
as §2, with “needed. The number of dead and live insects was investigated 72 hours later.” for “needed.”

[3] = tested on: 3rd-instar larvae of Agrotis ipsilon (Rottemberg); test: whole plant or invertebrate; details: Agrotis ipsilon; A = compound I-72, B = metalaxyl-M; insect-dipping; 72 hours; read-out: LC50
Procedure: Test conditions: temperature: 24-26° C., humidity: RH 60%, and illumination: L:D=14:10
as §1
The target insects were dipped into the pesticide solution for 10 s and then taken out. Excess pesticide solution was absorbed with filter paper. […] A treatment without the pesticide was set as the blank control.
The number of dead and live insects was investigated 72 hours later. The corrected mortality rate was calculated using the Abbott's formula, and statistical analysis was performed with the DPS data processing software to obtain the toxicity regression equation and LC50 value of each single test pesticide and each mixture of different ratios.

[4] = tested on: Thrips flavus Schrank nymphs; test: Joint toxicity of I-72 + tolfenpyrad, Example 62, Table 62; details: A = compound I72, B = tolfenpyrad, eggplant seedling spraying, 48 hours, read-out: LC50
Procedure: Test target: Thrips flavus Schrank nymphs.
as §1
Experimental method: first, eggplant seedlings with Thrips flavus Schrank were selected, and the base number was counted. Then, uniform spraying was performed with the pesticide solution in the order from low to high doses according to the experimental design, with 2 mL for each seedling and 3 replicates for each treatment. In addition, a blank control was set up.
as §2, with “needed. The number of dead and live insects was investigated 48 hours later.” for “needed.”

[5] = tested on: Nilaparvata lugens (Stal) nymphs; test: Joint toxicity of I-72 + etofenprox, Example 44, Table 44; details: A = compound I-72, B = etofenprox, potted rice seedling spraying, 72 hours, read-out: LC50
Procedure: as §3, §1, §4
as §2, with “needed. The number of dead and live insects was investigated 72 hours later.” for “needed.”

[6] = tested on: adult Bemisia tabaci (Gennadius); test: Joint toxicity of I-72 + emamectin benzoate, seedling spraying, Example 12, Table 12; details: Bemisia tabaci; adults, kidney bean seedling spraying, 72 h; A = compound I-72, B = emamectin benzoate; read-out: LC50
Excerpt: Test subject: adult Bemisia tabaci (Gennadius), a sensitive strain reared indoors.
Experimental method: the spraying method was adopted. The kidney bean seedlings cultivated in the greenhouse were selected and evenly sprayed with the pesticide solution in the order from low dosage to high dosage according to the experimental design. After natural air-drying in the shade, a self-made glass cover was put on, and the test insects were introduced, with 20-30 insects for each treatment and 3 replicates. In addition, a blank control was set up. The number of dead and live insects was investigated 72 hours later. The corrected mortality rate was calculated using the Abbott's formula, and the DPS data processing software was used for statistical analysis to calculate the toxicities (LC50 values) of the single test pesticides and the mixtures under the test ratios.
The test conditions, the preparation of the pesticide solution and the evaluation method were the same as those in Example 1.

[7] = tested on: Frankliniella occidentalis nymphs; test: whole plant or invertebrate; details: foliar, A = compound I-72, B = dinotefuran, kidney bean leaf dipping, 48 hours, read-out: LC50
Procedure: Test target: Frankliniella occidentalis nymphs.
as §1
Experimental method: first, kidney bean leaves were selected and dipped in the prepared pesticide solution for 10 s in the order from low dosage to high dosage according to the experimental design. After natural air-drying in the shade, they were placed in a 9-cm-diameter Petri dish with filter paper, and uniform and healthy test insects were introduced, with 20-30 insects for each treatment and 3 replicates for each treatment. In addition, a blank control was set up.
as §2, with “needed. The number of dead and live insects was investigated 48 hours later.” for “needed.”

Q: How did the LC50 [1] turn out when `CN(C(=O)c1ccc2c(c1)OC(F)(F)O2)c1cccc(C(=O)Nc2c(Br)cc(C(F)(C(F)(F)F)C(F)(F)F)cc2OC(F)F)c1F` [Compound I-72] was run?
A: Its LC50 is 40.4 µg/mL.

Q: And the LC50 [2]?
A: The LC50 was 285 µg/mL.

Q: What about the LC50 [3] of the same compound?
A: The LC50 was 0.265 µg/mL (≈ 0.357 µM).

Q: And the LC50 [4]?
A: The LC50 was 2.02 µg/mL.

Q: What about the LC50 [5] of the same compound?
A: The LC50 was 282 µg/mL.

Q: What about the LC50 [6] of the same compound?
A: Its LC50 is 2.97 µg/mL.

Q: And the LC50 [7]?
A: The LC50 was 2.41 µg/mL (≈ 3.25 µM).
